Reference: patent US9034574B2, “Agents for reversing epigenetic silencing of genes” (The Johns Hopkins University, priority 2006, dated 2015)
Where two headings read alike, the source gives them in different places.

Legend:
[1] = target: MeCP2_MBD binding to 5-mCpG containing DNA (Homo sapiens (Human), UniProt P51608); assay: DNA-protein binding assay, MeCP2_MBD to methylated oligonucleotide; conditions: His-tagged MeCP2_MBD, read-out: MeCP2 Binding Inhibition (IC50 in μM)
Procedure: (§1) To determine if the “lead” compounds directly interfere with MBD2 binding to ^5−m CpG containing DNA, each “lead” compound is tested for its ability to inhibit such binding using a DNA-protein binding assay. For this assay, a biotinylated and methylated oligonucleotide substrate is bound to a neutravidin-coated high binding capacity 96-well plate. His-tagged MBD2_MBD or MeCP2_MBD binds to the methylated oligonucleotide. An Anti-His-HRP conjugated antibody is used to detect bound protein. Introducing the “lead” compounds into the reaction mix at various concentrations provides a MBD2_MBD-DNA binding curve from which an IC50 is derived.
(§2) DNA binding assays using recombinant MBDs. […] After centrifugation in a microfuge, the soluble protein fraction, containing MBD2, was recovered. A similar approach was used for producing cloned recombinant MeCP2. […] After washing four times with binding buffer and drying wells, TMB is added to each well followed by 1 N HCl, and A450 is measured on a microplate reader. The IC50 for each “lead” compound is derived from the DNA-protein binding curve.

[2] = target: recombinant DNMT1 (Homo sapiens (Human), UniProt P26358); assay: DNA methyltransferase activity assay with recombinant DNMT1; format: biochemical; conditions: for DNMT1 Inhibition (IC50 in μM): recombinant DNMT1
Chain of recombinant DNMT1 (P26358 whole entry): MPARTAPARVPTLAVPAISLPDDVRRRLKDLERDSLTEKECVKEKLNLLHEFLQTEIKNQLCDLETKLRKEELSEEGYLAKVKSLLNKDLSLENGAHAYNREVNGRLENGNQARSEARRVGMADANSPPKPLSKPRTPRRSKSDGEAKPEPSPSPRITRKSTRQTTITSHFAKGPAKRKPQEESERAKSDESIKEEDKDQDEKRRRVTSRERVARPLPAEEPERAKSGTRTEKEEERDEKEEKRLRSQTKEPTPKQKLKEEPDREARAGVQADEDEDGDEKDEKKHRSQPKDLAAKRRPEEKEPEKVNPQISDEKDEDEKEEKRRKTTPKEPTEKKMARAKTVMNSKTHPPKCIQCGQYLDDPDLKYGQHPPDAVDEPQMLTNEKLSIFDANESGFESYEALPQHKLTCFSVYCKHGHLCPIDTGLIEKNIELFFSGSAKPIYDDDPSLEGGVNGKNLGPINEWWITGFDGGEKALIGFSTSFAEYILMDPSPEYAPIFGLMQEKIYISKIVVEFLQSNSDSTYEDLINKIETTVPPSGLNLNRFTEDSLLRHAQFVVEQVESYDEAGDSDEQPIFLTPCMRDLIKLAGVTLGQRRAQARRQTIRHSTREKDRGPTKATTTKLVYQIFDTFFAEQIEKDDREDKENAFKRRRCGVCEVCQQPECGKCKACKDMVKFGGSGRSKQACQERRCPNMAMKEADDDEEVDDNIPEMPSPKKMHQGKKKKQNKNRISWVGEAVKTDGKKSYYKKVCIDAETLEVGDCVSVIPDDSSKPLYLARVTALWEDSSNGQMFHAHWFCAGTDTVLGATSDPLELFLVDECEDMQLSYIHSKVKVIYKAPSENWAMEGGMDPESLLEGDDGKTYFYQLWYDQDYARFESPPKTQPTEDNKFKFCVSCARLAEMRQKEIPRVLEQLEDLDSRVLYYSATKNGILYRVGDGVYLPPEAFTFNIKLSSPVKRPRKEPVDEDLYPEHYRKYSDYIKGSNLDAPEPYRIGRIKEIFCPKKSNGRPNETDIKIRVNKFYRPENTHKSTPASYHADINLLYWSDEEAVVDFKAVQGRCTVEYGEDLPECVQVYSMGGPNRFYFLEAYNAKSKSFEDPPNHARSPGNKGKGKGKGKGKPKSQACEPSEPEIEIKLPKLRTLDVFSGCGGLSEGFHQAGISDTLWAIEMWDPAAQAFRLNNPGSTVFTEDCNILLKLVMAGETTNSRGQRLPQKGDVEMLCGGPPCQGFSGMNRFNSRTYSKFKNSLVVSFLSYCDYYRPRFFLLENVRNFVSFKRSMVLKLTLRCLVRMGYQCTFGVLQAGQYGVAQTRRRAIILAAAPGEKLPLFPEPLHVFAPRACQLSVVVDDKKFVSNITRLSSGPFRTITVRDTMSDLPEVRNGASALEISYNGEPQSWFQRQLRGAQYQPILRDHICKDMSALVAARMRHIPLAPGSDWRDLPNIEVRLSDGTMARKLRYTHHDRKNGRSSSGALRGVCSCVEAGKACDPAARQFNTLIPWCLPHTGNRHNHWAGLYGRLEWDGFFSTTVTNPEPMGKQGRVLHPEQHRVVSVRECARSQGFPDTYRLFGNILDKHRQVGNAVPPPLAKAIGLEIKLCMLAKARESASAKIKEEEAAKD
Excerpt: (§3) The outputs of these experiments were Ki's for each of the DNMT enzymes. When considered along with potency and efficacy data from the screening assays, the results of analyses of “lead” compounds for interference with MBD2 binding to ^5−m CpG-containing DNA, for direct binding to ^5−mCpG-containing DNA, and for inhibition of DNMTs allow prioritization of “lead” compounds. Ideally, “lead” compounds that activate expression from GSTP1 alleles with CpG island hypermethylation at sub-μM concentrations, target MBD2 directly, and fail to inhibit DNMTs, are high-priority “lead” compounds.
DNMT assays using recombinant DNMT1, DNMT3a, and DNMT3b. To produce recombinant DNMT1, full-length DNMT1 cDNA was amplified in two segments by RT-PCR from human brain poly A+ RNA (BD Clontech). Amplification of the upstream segment was performed using the PCR primers (5′-[…]-3′ (SEQ ID NO:4) and 5′-[…]-3′ (SEQ ID NO:5)), and amplification of the downstream segment was performed using the PCR primers (5′-[…]-3′ (SEQ ID NO:6) and 5′-[…]-3′ (SEQ ID NO:7)). The upstream and downstream segments were subcloned into the pCMVscript® vector (Stratagene), and assembled using an internal BstEII site that is common to both segments to create pCMVscript-DNMT1. PCR primers containing EcoRI and KpnI sites (5′-GAATTCCCGGCGCGTACCG-3′ (SEQ ID NO:8) and 5′-[…]-3′ (SEQ ID NO:9)) were used to amplify the DNMT1 coding sequence from pCMVscript-DNMT1. […] This pFB6H-DNMT1 construct was used to transform DH10Bac™ E. coli competent cells (Invitrogen) to generate a recombinant expression bacmid via site-specific transposition. The DNMT1 expression bacmid was transfected into Sf9 insect cells to produce recombinant DNMT1 baculovirus particles, which were subsequently used to infect additional Sf9 cells (1 MOI, 48 hours) for protein production. Recombinant His(6)-(SEQ ID NO:21)-DNMT1 was recovered by Ni2+ affinity chromatography. After lysis in 50 mM Na2HPO4 pH 7.6, 10 mM imidazole, 500 mM NaCl, 1% Igepal CA-630, 10% glycerol, and 1× Complete™ Protease Inhibitor (Roche) by two freeze-thaw cycles, His(6)-(SEQ ID NO:21)-DNMT1 was bound to Ni-NTA agarose (Qiagen) for 1.5 hours at 4° C. The supernatant was removed, and the beads were washed twice with 50 mM Na2HPO4 pH 7.6, 20 mM imidazole, 500 mM NaCl, 10% glycerol, and 1× Complete™ Protease Inhibitor to remove contaminating proteins. The beads were then washed twice with 50 mM Na2HPO4 pH 7.6, 10 mM NaCl, 10% glycerol, and 1× Complete™ Protease Inhibitor to remove excess salt. His(6)-(SEQ ID NO:21)-DNMT1 was eluted from the Ni-NTA agarose by adding 50 mM Na2HPO4 pH 7.6, 250 mM imidazole, 10 mM NaCl, 10% glycerol, and 1× Complete™ Protease Inhibitor. Spin dialysis was used to concentrate the protein and exchange the buffer 50 mM Na2HPO4 pH 7.6, 10 mM NaCl, 1 mM EDTA, 1 mM DTT, 20% glycerol, and 1× Complete™ Protease Inhibitor. Protein concentration was determined using the BCA assay (Pierce). Recombinant DNMT1 was stored at −80° C. until further use.
DNA methyltransferase activity assays were performed by combining 100 nM His(6)-(SEQ ID NO:21)-DNMT with 5′-biotinylated synthetic hemi-methylated or unmethylated oligonucleotide substrate containing 1 μM CG (Top Strand 5′-[…]-3′ (SEQ ID NO:18), Bottom Strand 5′-[…]-3′ (SEQ ID NO:19)) and 1 μM S-adenosyl-L-[methyl-^3H]Methionine™ (Amersham TRK581 60-85 Ci/mmol). After incubation at 37° C. for 30 minutes, reactions were stopped by adding one volume of 10 mM cold S-adenosyl-L-Methionine™ (Sigma). To purify the oligonucleotides, reactions will be added to a SAm^2® 96 Biotin Capture Plate (Promega). The plate was washed 7 times with PBS+2M NaCl and 3 times with dH20 to remove His(6)-(SEQ ID NO:21)-DNMT1 and S-adenosyl-L-methionine.

[3] = target: MBD2_MBD binding to 5-mCpG containing DNA (Homo sapiens (Human), UniProt Q9UBB5); assay: DNA-protein binding assay, MBD2_MBD to methylated oligonucleotide; conditions: His-tagged MBD2_MBD
Chain of MBD2_MBD binding to 5-mCpG containing DNA (Q9UBB5 145-213): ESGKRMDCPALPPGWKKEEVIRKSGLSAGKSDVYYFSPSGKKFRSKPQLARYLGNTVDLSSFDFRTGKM
Procedure: as §1, §2

[4] = tested on: colon ca; conditions: cited from earlier work
[5] = tested on: melanoma; conditions: cited from earlier work
[6] = tested on: breast ca; conditions: cited from earlier work
[7] = tested on: ovarian ca; conditions: cited from earlier work
[8] = tested on: lung ca; conditions: n 15, 200-600 mg/M^2 over 1 day iv; cited from earlier work
[9] = tested on: prostate ca; conditions: n 14, 225 mg/M^2 over 1 day iv; cited from earlier work
[10] = tested on: mesothelioma; conditions: cited from earlier work
[11] = target: recombinant DNMT3a (Homo sapiens (Human), UniProt Q9Y6K1); assay: DNA methyltransferase activity assay with recombinant DNMT3a; format: biochemical; conditions: read-out: Ki for inhibition of DNMT3a
Chain of recombinant DNMT3a (Q9Y6K1 whole entry, looked up): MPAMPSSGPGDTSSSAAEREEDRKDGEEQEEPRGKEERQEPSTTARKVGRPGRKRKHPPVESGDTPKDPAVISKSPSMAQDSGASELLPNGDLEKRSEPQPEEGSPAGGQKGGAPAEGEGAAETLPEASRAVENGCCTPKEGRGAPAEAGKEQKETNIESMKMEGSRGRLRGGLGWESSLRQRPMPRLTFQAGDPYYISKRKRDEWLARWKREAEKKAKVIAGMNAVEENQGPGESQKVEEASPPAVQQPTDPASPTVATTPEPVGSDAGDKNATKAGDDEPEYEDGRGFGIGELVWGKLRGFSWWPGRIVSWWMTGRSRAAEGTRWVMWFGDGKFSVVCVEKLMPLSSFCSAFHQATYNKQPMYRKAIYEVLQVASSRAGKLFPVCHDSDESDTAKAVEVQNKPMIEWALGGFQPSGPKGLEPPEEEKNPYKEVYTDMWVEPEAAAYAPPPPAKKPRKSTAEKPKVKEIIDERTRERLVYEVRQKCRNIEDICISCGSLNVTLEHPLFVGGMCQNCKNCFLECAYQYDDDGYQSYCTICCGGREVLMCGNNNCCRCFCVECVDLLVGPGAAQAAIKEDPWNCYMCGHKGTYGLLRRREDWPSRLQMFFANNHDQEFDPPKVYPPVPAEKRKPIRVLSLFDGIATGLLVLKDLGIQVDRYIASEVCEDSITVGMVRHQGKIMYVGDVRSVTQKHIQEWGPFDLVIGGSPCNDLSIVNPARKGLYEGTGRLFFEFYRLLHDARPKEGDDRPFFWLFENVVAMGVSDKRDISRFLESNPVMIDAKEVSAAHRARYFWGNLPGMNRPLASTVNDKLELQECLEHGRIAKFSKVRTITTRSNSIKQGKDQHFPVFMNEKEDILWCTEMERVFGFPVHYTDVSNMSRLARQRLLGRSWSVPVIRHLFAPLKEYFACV
Excerpt: as §3
His(6)-(SEQ ID NO:21)-DNMT3a and His(6)-(SEQ ID NO:21)-DNM3b2 were expressed and purified in Sf9 cells as described above with the following modifications. […]
DNA methyltransferase activity assays were performed by combining 100 nM His(6)-(SEQ ID NO:21)-DNMT with 5′-biotinylated synthetic hemi-methylated or unmethylated oligonucleotide substrate containing 1 μM CG (Top Strand 5′-[…]-3′ (SEQ ID NO:18), Bottom Strand 5′-[…]-3′ (SEQ ID NO:19)) and 1 μM S-adenosyl-L-[methyl-^3H]Methionine™ (Amersham TRK581 60-85 Ci/mmol). […] After drying the plate, 30 μl Microscint-PS™ scintillation fluid (Packard) was added to each well, and tritium was quantitated using the TopCount™ NXT liquid scintillation counter (Packard). […]

[12] = n 4, 275-850 mg/M^2 over 10 days sq

Chain of MeCP2_MBD binding to 5-mCpG containing DNA (P51608 90-162): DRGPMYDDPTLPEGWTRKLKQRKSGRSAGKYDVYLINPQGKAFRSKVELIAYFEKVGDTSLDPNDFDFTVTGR

| SMILES | IC50 [1] | DNMT1 Inhibition (IC50 in μM) [2] | other results |
| --- | --- | --- | --- |
| c1ccc(Nc2nc(-c3ccccn3)cs2)nc1 [(I)] | 10.5 µM |  |  |
| Oc1cccc(Nc2nc(-c3ccccn3)cs2)c1 [(II)] | > 200 µM | No Inhibition |  |
| Cn1c2ccccc2n2cc(-c3ccc([N+](=O)[O-])cc3)nc12 [(III)] | > 200 µM | No Inhibition |  |
| COc1ccccc1-c1nc(-c2cccc([N+](=O)[O-])c2)no1 [(X)] | > 200 µM | No Inhibition |  |
| COc1ccc([N+](=O)[O-])cc1C1NN=C(c2ccccc2)S1 (stereo not drawn) [(XIX)] |  | No Inhibition | MBD2 Binding Inhibition (IC50 in μM) [3]: In- conclusive |
| Oc1ccc(C2NN=C(c3ccccc3)S2)cc1 (stereo not drawn) [(XVII)] | 16.9 µM | No Inhibition |  |
| COc1cc(O)cc(Br)c1/C=N/Nc1nc2ccccc2s1 [(XVIII)] | > 200 µM | No Inhibition |  |
| OC1(C(F)(F)F)CC(c2ccccc2)=NN1C(=S)c1ccccc1 (stereo not drawn) [(XX)] | > 200 µM | No Inhibition |  |
| Clc1ccc(C2NN=C(c3ccccc3)S2)cc1 (stereo not drawn) [(XXI)] | 33.9 µM | No Inhibition |  |
| Oc1ccc2ccccc2c1C1NN=C(c2ccccc2)S1 (stereo not drawn) [(XXII)] | 0.61 µM | No Inhibition |  |
| Nc1cccc(-c2nnc(-c3ccccc3)o2)c1 [(XXIII)] | 8.59 µM | No Inhibition |  |
| COc1ccc(NC(=O)Nc2cccc3cccnc23)cc1 [(XXIV)] | 2.81 µM |  |  |
| CCOc1ccc(Nc2nc(-c3ccccn3)cs2)cc1 [(XXV)] | > 200 µM |  |  |
| Nc1ncn([C@@H]2O[C@H](CO)[C@@H](O)[C@H]2O)c(=O)n1 [Compound 5-aza-C, 5-az-cytidine] |  |  | % Response ([4]; n 4, 275-850 mg/M^2 over 8 days sq): 0%; % Response ([4]; n 6, 300-700 mg/M^2 over 10 days iv): 33%; % Response ([4]; n 27, dose not given): 4%; % Response ([5]; n 5, 300-700 mg/M^2 over 8 days iv): 40%; % Response ([6]; 1.6 mg/kg over 10 days iv): 17%; % Response [6, 12]: 25%; % Response ([6]; n 11, 300-700 mg/M^2 over 8 days iv): 63%; % Response ([6]; n 31, 600 mg/M^2 over 10 days iv): 6%; % Response [7, 12]: 25% |
| Nc1ncn([C@H]2C[C@H](O)[C@@H](CO)O2)c(=O)n1 [Compound 5-aza-dC, 5-aza-deoxycytidine] |  |  | % Response [8]: 20%; % Response ([4]; n 42, 225 mg/M^2 over 1 day iv): 0%; % Response [9]: 16%; % Response ([5]; n 18, 225 mg/M^2 over 1 day iv): 0%; % Response ([7]; n 24, 225 mg/M^2 over 10 days iv): 8% |
| NC1=NCN([C@@H]2O[C@H](CO)[C@@H](O)[C@H]2O)C(=O)N1 [dh-5-aza-C] |  |  | % Response ([5]; n 40, 5 g/M^2 over 1 day cl): 20%; % Response ([10]; n 29, 1500 mg/M^2 over 5 days cl): 17%; % Response ([10]; n 41, 1500 mg/M^2 over 5 days cl): 17% |
| CCN(CC)CCNC(=O)c1ccc(N)cc1 [procainamide, reference compound] |  |  | Ki ([2]; mixed mechanism, read-out: Ki for inhibition of DNMT1): 7.2 µM; Ki [11]: 1400 µM |
